Columns and labels:
Format in all cases: biochemical
Human Tyk2 kinase domain = biological target: T1, Human Tyk2 kinase domain (Homo sapiens, UniProt P29597); assay: Tyk2 Inhibition Assay (Omnia kinase fluorescence peptide substrate); conditions: averaged IC50 ranges; 10 μM (Km app) or 1 mM ATP, 2 nM Tyk2
T1 construct: comprising amino acids 886 to 1187; His10 (10 histidine residues) (C, cleaved yes); made in house
T1 sequence (P29597 886-1187): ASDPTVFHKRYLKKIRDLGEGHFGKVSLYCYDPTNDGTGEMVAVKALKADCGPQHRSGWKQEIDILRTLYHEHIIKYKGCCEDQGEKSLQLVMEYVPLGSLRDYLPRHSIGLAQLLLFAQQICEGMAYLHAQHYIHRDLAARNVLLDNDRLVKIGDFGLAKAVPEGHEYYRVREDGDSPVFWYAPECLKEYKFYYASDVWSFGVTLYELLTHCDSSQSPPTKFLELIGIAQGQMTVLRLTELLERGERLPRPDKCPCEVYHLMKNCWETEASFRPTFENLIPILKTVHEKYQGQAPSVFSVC
Procedure, shortened: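 Phosphorylation of 8 μM Omnia Y12 peptide followed kinetically by Sox fluorescence, ex 360/em 485 nm, every 50 s for 45 min. Enzyme: 2 nM Tyk2 kinase domain (aa 886–1187, His tag removed); ATP at 10 μM (Km app) or 1 mM; buffer HEPES pH 7.4 with MgCl2, Triton X-100, DTT. 10-point curves up to 10 μM, IC50 from 4-parameter logistic fit.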

JAK3 = biological target: T2, JAK3 (Homo sapiens, UniProt P52333); assay: JAK3 Inhibition Assay (Omnia kinase fluorescence peptide substrate); conditions: averaged IC50 ranges; 10 μM (Km app) or 1 mM ATP, 2.5 nM JAK3
T2 construct: purchased Invitrogen Corporation, Carlsbad, Calif; IVGN PV4080
T2 sequence (P52333 1-1124): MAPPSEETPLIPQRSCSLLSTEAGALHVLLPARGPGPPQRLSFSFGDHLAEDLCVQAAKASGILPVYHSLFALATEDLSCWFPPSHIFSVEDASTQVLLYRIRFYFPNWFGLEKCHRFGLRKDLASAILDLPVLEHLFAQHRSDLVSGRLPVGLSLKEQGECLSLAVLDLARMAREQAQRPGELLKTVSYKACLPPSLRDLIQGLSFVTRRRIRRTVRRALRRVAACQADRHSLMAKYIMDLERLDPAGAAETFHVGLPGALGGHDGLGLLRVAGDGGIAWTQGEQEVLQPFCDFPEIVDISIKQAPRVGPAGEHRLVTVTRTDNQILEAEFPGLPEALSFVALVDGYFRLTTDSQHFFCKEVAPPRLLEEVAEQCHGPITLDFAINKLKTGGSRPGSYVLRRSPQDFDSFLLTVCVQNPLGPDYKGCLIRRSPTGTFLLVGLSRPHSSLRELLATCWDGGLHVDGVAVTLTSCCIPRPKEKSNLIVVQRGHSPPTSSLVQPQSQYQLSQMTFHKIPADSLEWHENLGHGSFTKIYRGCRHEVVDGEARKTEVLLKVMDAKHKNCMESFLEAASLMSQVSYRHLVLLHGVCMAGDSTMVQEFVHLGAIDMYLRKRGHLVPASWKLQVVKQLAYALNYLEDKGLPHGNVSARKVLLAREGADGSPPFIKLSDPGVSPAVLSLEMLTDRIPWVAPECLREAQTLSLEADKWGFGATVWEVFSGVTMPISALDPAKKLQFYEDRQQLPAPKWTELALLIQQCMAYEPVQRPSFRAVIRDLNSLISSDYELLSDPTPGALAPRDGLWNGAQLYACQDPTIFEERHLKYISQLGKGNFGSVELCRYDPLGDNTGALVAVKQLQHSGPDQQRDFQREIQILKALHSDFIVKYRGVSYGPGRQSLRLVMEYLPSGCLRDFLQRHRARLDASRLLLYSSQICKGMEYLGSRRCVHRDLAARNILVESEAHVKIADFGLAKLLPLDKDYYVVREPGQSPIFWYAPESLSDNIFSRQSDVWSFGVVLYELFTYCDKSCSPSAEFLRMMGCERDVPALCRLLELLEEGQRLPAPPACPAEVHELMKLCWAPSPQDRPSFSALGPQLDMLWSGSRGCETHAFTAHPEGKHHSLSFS
Procedure, shortened: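 IC50 is the concentration giving 50 percent of control on a 4-parameter logistic fit of 10-point, 3-fold dilutions from a 10 μM top dose, at 2% final DMSO. Kinetic Sox fluorescence (360/485 nm) was monitored every 50 s for 45 min. Mix: JAK3 2.5 nM, Omnia Y7 peptide 10 μM, ATP 10 μM (Km app) or 1 mM, in HEPES pH 7.4 buffer with MgCl2, Triton X-100 and DTT.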

JAK1 = biological target: T3, JAK1 (Homo sapiens, UniProt P23458); assay: JAK1 Inhibition Assay (Omnia kinase fluorescence peptide substrate); conditions: averaged IC50 ranges; 40 μM (Km app) or 1 mM ATP, 15 nM JAK1
T3 construct: purchased Invitrogen Corporation, Carlsbad, Calif; IVGN PV4775
Procedure, shortened: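 15 nM JAK1, 8 μM Omnia Y12 peptide, 40 μM (Km app) or 1 mM ATP; 25 mM HEPES pH 7.4, 10 mM MgCl2, 2% DMSO. Fluorescence (ex 360/em 485 nm) read every 50 s over 45 min. IC50 by 4-parameter fit of percent of control, top dose 10 μM.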

JAK2 = biological target: T4, JAK2 (Homo sapiens, UniProt O60674); assay: JAK2 Inhibition Assay (Omnia kinase fluorescence peptide substrate); conditions: averaged IC50 ranges; 25 μM (Km app) or 1 mM ATP, 5 nM JAK2
T4 construct: purchased Invitrogen Corporation, Carlsbad, Calif; IVGN PV4288
T4 sequence (O60674 whole entry): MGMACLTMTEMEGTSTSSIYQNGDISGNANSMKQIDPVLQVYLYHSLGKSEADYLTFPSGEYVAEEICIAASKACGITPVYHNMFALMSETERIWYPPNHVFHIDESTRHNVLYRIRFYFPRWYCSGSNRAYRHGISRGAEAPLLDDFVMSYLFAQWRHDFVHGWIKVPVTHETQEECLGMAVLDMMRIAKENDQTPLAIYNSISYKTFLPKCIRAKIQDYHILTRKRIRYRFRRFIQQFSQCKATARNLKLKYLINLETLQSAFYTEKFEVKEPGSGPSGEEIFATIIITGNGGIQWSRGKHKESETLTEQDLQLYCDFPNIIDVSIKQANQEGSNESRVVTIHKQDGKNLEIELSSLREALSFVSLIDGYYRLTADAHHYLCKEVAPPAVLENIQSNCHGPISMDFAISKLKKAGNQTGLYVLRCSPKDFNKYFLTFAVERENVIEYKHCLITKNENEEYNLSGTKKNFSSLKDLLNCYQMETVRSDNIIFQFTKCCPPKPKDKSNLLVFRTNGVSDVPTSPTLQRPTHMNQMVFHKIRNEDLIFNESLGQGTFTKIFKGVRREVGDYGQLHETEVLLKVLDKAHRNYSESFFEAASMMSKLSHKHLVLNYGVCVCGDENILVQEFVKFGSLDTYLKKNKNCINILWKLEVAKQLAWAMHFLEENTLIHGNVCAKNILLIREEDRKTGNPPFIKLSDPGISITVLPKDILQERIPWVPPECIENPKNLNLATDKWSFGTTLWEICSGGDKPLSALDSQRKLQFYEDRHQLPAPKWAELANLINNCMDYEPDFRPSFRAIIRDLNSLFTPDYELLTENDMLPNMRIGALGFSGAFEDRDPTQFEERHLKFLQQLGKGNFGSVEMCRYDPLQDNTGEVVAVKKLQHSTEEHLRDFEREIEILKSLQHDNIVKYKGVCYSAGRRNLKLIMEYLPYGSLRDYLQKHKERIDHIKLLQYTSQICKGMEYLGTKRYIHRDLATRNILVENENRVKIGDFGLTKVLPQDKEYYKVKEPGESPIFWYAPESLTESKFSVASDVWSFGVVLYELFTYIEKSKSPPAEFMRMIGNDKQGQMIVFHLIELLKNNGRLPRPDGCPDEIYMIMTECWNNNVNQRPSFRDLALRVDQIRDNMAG

T3 sequence (P23458 whole entry): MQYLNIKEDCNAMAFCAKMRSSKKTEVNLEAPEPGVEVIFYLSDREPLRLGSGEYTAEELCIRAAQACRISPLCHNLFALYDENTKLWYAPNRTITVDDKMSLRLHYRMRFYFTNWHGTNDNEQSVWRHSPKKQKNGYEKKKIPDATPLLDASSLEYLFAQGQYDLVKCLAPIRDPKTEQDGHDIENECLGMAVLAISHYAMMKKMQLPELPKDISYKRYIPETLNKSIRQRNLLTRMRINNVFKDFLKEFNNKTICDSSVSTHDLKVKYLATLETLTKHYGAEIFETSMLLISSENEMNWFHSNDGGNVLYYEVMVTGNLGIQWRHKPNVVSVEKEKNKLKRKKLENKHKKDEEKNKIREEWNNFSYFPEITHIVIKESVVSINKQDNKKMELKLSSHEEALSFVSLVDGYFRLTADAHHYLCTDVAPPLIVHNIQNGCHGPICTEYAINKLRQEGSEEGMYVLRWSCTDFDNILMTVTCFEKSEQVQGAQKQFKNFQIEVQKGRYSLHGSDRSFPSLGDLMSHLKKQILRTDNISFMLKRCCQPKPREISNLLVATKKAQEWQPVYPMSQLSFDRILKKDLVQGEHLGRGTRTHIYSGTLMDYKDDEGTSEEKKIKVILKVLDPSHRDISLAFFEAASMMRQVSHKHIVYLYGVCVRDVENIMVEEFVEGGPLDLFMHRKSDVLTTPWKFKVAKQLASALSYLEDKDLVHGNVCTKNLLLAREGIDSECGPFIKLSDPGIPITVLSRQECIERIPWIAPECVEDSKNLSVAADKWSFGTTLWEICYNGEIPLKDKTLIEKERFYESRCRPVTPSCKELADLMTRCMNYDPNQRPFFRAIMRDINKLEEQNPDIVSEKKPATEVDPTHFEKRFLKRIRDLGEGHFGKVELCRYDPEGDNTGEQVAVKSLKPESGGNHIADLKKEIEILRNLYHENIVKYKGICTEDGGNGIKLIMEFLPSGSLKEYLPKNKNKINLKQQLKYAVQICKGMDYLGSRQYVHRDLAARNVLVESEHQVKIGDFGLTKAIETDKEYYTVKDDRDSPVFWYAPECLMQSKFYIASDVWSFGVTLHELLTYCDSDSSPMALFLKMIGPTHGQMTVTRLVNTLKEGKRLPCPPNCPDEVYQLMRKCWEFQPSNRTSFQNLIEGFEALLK

Row | Compound | IC50 (Human Tyk2 kinase domain) | IC50 (JAK3) | IC50 (JAK1) | IC50 (JAK2)
1 | CC(=O)CC(C1CC1)n1cc(-c2nc(-c3cnn(C)c3)cc3nccn23)cn1 (centres unmarked) [Example 61, 4-cyclopropyl-4-(4-(7-(1-methyl-1H-pyrazol-4-yl)imidazo[1,2-c]pyrimidin-5-yl)-1H-pyrazol-1-yl)butan-2-one] | 100 to 1000 nM | > 1000 nM | > 1000 nM | 100 to 1000 nM
2 | Cn1cc(-c2cc3nccn3c(-c3cnn(C(CC(N)=O)C4CC4)c3)n2)cn1 (centres unmarked) [Example 63, 3-cyclopropyl-3-(4-(7-(1-methyl-1H-pyrazol-4-yl)imidazo[1,2-c]pyrimidin-5-yl)-1H-pyrazol-1-yl)propanamide] | 100 to 1000 nM | > 1000 nM | > 1000 nM | 100 to 1000 nM
3 | CCOCCC(C1CCC1)n1cc(-c2nc(-c3cnn(C)c3)cc3nccn23)cn1 (centres unmarked) [Example 67, 5-(1-(1-cyclobutyl-3-ethoxypropyl)-1H-pyrazol-4-yl)-7-(1-methyl-1H-pyrazol-4-yl)imidazo[1,2-c]pyrimidine] | 100 to 1000 nM | > 1000 nM | > 1000 nM | 100 to 1000 nM
4 | Cn1cc(-c2cc3nccn3c(-c3cnn(C(CCO)C4CCC4)c3)n2)cn1 (centres unmarked) [Example 68, 3-cyclobutyl-3-(4-(7-(1-methyl-1H-pyrazol-4-yl)imidazo[1,2-c]pyrimidin-5-yl)-1H-pyrazol-1-yl)propan-1-ol] | 100 to 1000 nM | > 1000 nM | > 1000 nM | > 1000 nM
5 | COCCC(C1CCCC1)n1cc(-c2nc(-c3cnn(C)c3)cc3nccn23)cn1 (centres unmarked) [Example 70, 5-(1-(1-cyclopentyl-3-methoxypropyl)-1H-pyrazol-4-yl)-7-(1-methyl-1H-pyrazol-4-yl)imidazo[1,2-c]pyrimidine] | 100 to 1000 nM | > 1000 nM | > 1000 nM | > 1000 nM
6 | COCCC(C1CCCCC1)n1cc(-c2nc(-c3cnn(C)c3)cc3nccn23)cn1 (centres unmarked) [Example 71, 5-(1-(1-cyclohexyl-3-methoxypropyl)-1H-pyrazol-4-yl)-7-(1-methyl-1H-pyrazol-4-yl)imidazo[1,2-c]pyrimidine] | > 1000 nM | > 1000 nM | > 1000 nM | > 1000 nM
7 | Cn1cc(-c2cc3nccn3c(-c3cnn(C(CCO)C4CCCC4)c3)n2)cn1 (centres unmarked) [Example 72, 3-cyclopentyl-3-(4-(7-(1-methyl-1H-pyrazol-4-yl)imidazo[1,2-c]pyrimidin-5-yl)-1H-pyrazol-1-yl)propan-1-ol] | 100 to 1000 nM | > 1000 nM | > 1000 nM | > 1000 nM
8 | Cn1cc(-c2cc3nccn3c(-c3cnn(C(CCO)C4CCCCC4)c3)n2)cn1 (centres unmarked) [Example 73, 3-cyclohexyl-3-(4-(7-(1-methyl-1H-pyrazol-4-yl)imidazo[1,2-c]pyrimidin-5-yl)-1H-pyrazol-1-yl)propan-1-ol] | 100 to 1000 nM | > 1000 nM | > 1000 nM | 100 to 1000 nM

Now from value to compound:

Row | IC50 (Human Tyk2 kinase domain) | IC50 (JAK3) | IC50 (JAK1) | IC50 (JAK2) | Compound
9 | < 10 nM | 100 to 1000 nM | 100 to 1000 nM | 10 to 100 nM | Cc1cc(-c2cc3nccn3c(-c3cnn(C4(CCF)CN(S(=O)(=O)C(F)(F)F)C4)c3)n2)[nH]n1 [Example 58, 5-(1-(3-(2-fluoroethyl)-1-((trifluoromethyl)sulfonyl)azetidin-3-yl)-1H-pyrazol-4-yl)-7-(3-methyl-1H-pyrazol-5-yl)imidazo[1,2-c]pyrimidine]
10 | < 10 nM | 100 to 1000 nM | 100 to 1000 nM | 10 to 100 nM | CO[C@H](C)Cn1cc(-c2cc3nccn3c(-c3cnn(C4(CCF)CN(S(=O)(=O)C(F)(F)F)C4)c3)n2)cn1 [Example 59, (R)-5-(1-(3-(2-fluoroethyl)-1-((trifluoromethyl)sulfonyl)azetidin-3-yl)-1H-pyrazol-4-yl)-7-(1-(2-methoxypropyl)-1H-pyrazol-4-yl)imidazo[1,2-c]pyrimidine]
11 | < 10 nM | 100 to 1000 nM | 10 to 100 nM | < 10 nM | O=S(=O)(N1CC(CCF)(n2cc(-c3nc(-c4cnn(C5CCOCC5)c4)cc4nccn34)cn2)C1)C(F)(F)F [Example 60, 5-(1-(3-(2-fluoroethyl)-1-((trifluoromethyl)sulfonyl)azetidin-3-yl)-1H-pyrazol-4-yl)-7-(1-(tetrahydro-2H-pyran-4-yl)-1H-pyrazol-4-yl)imidazo[1,2-c]pyrimidine]
12 | 10 to 100 nM | 100 to 1000 nM | 100 to 1000 nM | 10 to 100 nM | CSCCC(C1CC1)n1cc(-c2nc(-c3cnn(C)c3)cc3nccn23)cn1 (centres unmarked) [Example 62, 5-(1-(1-cyclopropyl-3-(methylthio)propyl)-1H-pyrazol-4-yl)-7-(1-methyl-1H-pyrazol-4-yl)imidazo[1,2-c]pyrimidine]
13 | 10 to 100 nM | 100 to 1000 nM | 100 to 1000 nM | 10 to 100 nM | Cn1cc(-c2cc3nccn3c(-c3cnn(C4(CCF)CN(S(C)(=O)=O)C4)c3)n2)cn1 [Example 64, 5-(1-(3-(2-fluoroethyl)-1-(methylsulfonyl)azetidin-3-yl)-1H-pyrazol-4-yl)-7-(1-methyl-1H-pyrazol-4-yl)imidazo[1,2-c]pyrimidine]
14 | 10 to 100 nM | 100 to 1000 nM | 100 to 1000 nM | 100 to 1000 nM | CCC(CCCO)n1cc(-c2nc(-c3cnn(C)c3)cc3nccn23)cn1 (centres unmarked) [Example 65, 4-(4-(7-(1-methyl-1H-pyrazol-4-yl)imidazo[1,2-c]pyrimidin-5-yl)-1H-pyrazol-1-yl)hexan-1-ol]
15 | < 10 nM | 100 to 1000 nM | 100 to 1000 nM | 10 to 100 nM | Cn1cc(-c2cc3nccn3c(-c3cnn(C(CCF)C4CCCC4)c3)n2)cn1 (centres unmarked) [Example 66, 5-(1-(1-cyclopentyl-3-fluoropropyl)-1H-pyrazol-4-yl)-7-(1-methyl-1H-pyrazol-4-yl)imidazo[1,2-c]pyrimidine]
16 | < 10 nM | 100 to 1000 nM | 100 to 1000 nM | 10 to 100 nM | Cn1cc(-c2cc3nccn3c(-c3cnn(C(CCF)C4CCC4)c3)n2)cn1 (centres unmarked) [Example 69, 5-(1-(1-cyclobutyl-3-fluoropropyl)-1H-pyrazol-4-yl)-7-(1-methyl-1H-pyrazol-4-yl)imidazo[1,2-c]pyrimidine]
17 | 10 to 100 nM | > 1000 nM | > 1000 nM | 100 to 1000 nM | COCCC(C1CC1)n1cc(-c2nc(-c3cnn(C)c3)cc3nccn23)cn1 (centres unmarked) [Example 74, 5-(1-(1-cyclopropyl-3-methoxypropyl)-1H-pyrazol-4-yl)-7-(1-methyl-1H-pyrazol-4-yl)imidazo[1,2-c]pyrimidine]

Reference: patent publication US20140228349A1, “5,7-SUBSTITUTED-IMIDAZO[1,2-C]PYRIMIDINES” (Array BioPharma Inc., priority 2011, published 2014)
